Values of other authors in US20130084245A1, “PET MONITORING OF A-BETA-DIRECTED IMMUNOTHERAPY” (Wyeth LLC, priority 2010, published 2013).

Experiments:
[1] = biological target: T1, Aβ deposits (Homo sapiens, UniProt P05067); details: areas of brain association cortex targeted by Aβ deposits
T1 construct: aggregated fibrillar deposits of the Aβ peptide

[2] = biological target: T2, aggregated fibrillar deposits of the Aβ peptide (Homo sapiens, UniProt P05067)
T2 construct: aggregated fibrillar deposits of the Aβ peptide

[3] = biological target: T1, Aβ deposits; details: preliminary study

T2 sequence (P05067 672-713 limits assumed): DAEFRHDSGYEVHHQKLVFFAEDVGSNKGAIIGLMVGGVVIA
T1 sequence (P05067 672-713 limits assumed): as above

Retention in AD patients compared with controls [1]	Affinity for aggregated fibrillar deposits of the Aβ peptide [2]	Selectivity of binding to postmortem human brain ([2]; low nanomolar concentrations typically used in PET studies)	Performance as PET ligand in AD and controls [3]	Compound
approximately two-fold	low nanomolar affinity	selective for fibrillar Aβ deposits	–	CNc1ccc(-c2nc3ccc(O)cc3s2)cc1 [PiB, 2-(4′-methylaminophenyl)-6-hydroxybenzothiazole]
–	–	–	performed comparably to ^11C-PIB	CNc1ccc(/C=C/c2ccc(OCCOCCOCC[18F])cc2)cc1 [^18F-BAY94-9172]
